Measurements as given in ChEMBL document CHEMBL1201862, “PubChem BioAssay data set” (2004).
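Tested at 5 concentrations; 48 h exposure; 96-well plates; endpoints linearly interpolated, else capped at highest concentration. GI50 marks 50% less growth.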 The source made the active and inactive calls. No stated cut-off is given here; in the data, active = GI50 up to about 1.1 µM and inactive = higher.

How the values were obtained:
Experiment in all cases: NCI-60 cell line screen, 48 h
[1] = system: OVCAR-3
[2] = system: A498
[3] = system: CCRF-CEM
[4] = system: DMS-273
[5] = system: HCT-15
[6] = system: NCI-H460
[7] = system: SF-295
[8] = system: SK-OV-3
[9] = system: UACC-257
[10] = system: SN12C
[11] = system: SK-MEL-5
[12] = system: COLO 205
[13] = system: HCC 2998
[14] = system: CAKI-1
[15] = system: MDA-MB-231
[16] = system: SNB-19
[17] = system: BT-549
[18] = system: DU-145
[19] = system: NCI/ADR-RES
[20] = system: SR

| SMILES | GI50 [1] | GI50 [2] | GI50 [3] | GI50 [4] | GI50 [5] [µM] | GI50 [6] | GI50 [7] | GI50 [8] | GI50 [9] | GI50 [10] | GI50 [11] | GI50 [12] | GI50 [13] | GI50 [14] | GI50 [15] | GI50 [16] | GI50 [17] | GI50 [18] | GI50 [19] | GI50 [20] |
| --- | --- | --- | --- | --- | --- | --- | --- | --- | --- | --- | --- | --- | --- | --- | --- | --- | --- | --- | --- | --- |
| O=C(CSc1nnc(Cc2ccccc2)o1)Nc1ccccc1 | > 100 µM (inactive) | > 100 µM (inactive) | > 100 µM (inactive) | > 100 µM (inactive) | > 100 | > 100 µM (inactive) | > 100 µM (inactive) | > 100 µM (inactive) | > 100 µM (inactive) | > 100 µM (inactive) | > 100 µM (inactive) | > 100 µM (inactive) | > 100 µM (inactive) |  |  |  |  |  |  |  |
| CCN(Cc1cc(Cl)cc(C)c1O)Cc1c(O)ccc2ccccc12 | 15 µM (inactive) | 18.7 µM (inactive) | 10.5 µM (inactive) |  | 14.6 | 18.2 µM (inactive) | 16.9 µM (inactive) | 15.2 µM (inactive) | 15.8 µM (inactive) | 18.2 µM (inactive) | 14.9 µM (inactive) | 22.7 µM (inactive) | 16.8 µM (inactive) | 15.3 µM (inactive) | 18.4 µM (inactive) | 18.5 µM (inactive) | 13.3 µM (inactive) | 20.2 µM (inactive) | 14.8 µM (inactive) | 16.2 µM (inactive) |
| NS(=O)(=O)c1ccc(Nc2c3ccccc3nc3c(C(=O)NCCO)cccc23)cc1 | 0.12 µM (active) | 0.105 µM (active) | 0.0335 µM (active) |  | 0.169 | 0.0439 µM (active) | 0.191 µM (active) | 0.201 µM (active) | 0.17 µM (active) | 0.176 µM (active) | 0.0853 µM (active) | 0.0762 µM (active) | 0.182 µM (active) | 0.198 µM (active) | 0.184 µM (active) | 0.0977 µM (active) | 0.145 µM (active) | 0.165 µM (active) | 0.408 µM (active) | 0.0128 µM (active) |
| CC1=NN(c2ccccc2)C(=O)/C1=C\c1ccc([N+](=O)[O-])cc1 |  | 11.4 µM (inactive) | 20.7 µM (inactive) | 25 µM (inactive) | 29.6 | 34 µM (inactive) | 31.1 µM (inactive) | 24.1 µM (inactive) | 28.7 µM (inactive) | 32.1 µM (inactive) | 22.4 µM (inactive) | 17.7 µM (inactive) | 25.6 µM (inactive) | 27.3 µM (inactive) |  | 30.5 µM (inactive) |  |  |  |  |
| C=C1CCC2(C(C)=O)COC1(C)O2 (stereo not given) | > 100 µM (inactive) |  | > 100 µM (inactive) | > 100 µM (inactive) | > 100 | > 100 µM (inactive) | > 100 µM (inactive) | > 100 µM (inactive) | > 100 µM (inactive) | > 100 µM (inactive) | > 100 µM (inactive) | > 100 µM (inactive) |  |  |  | > 100 µM (inactive) |  |  |  |  |
| COc1ccc(/C=N/NC(=O)c2ccccc2Nc2ccccc2C(=O)N/N=C/c2ccc(OC)c(OC)c2)cc1OC | > 100 µM (inactive) | > 100 µM (inactive) | > 100 µM (inactive) |  | > 100 | > 100 µM (inactive) | 39.9 µM (inactive) | > 100 µM (inactive) | > 100 µM (inactive) | > 100 µM (inactive) | > 100 µM (inactive) | > 100 µM (inactive) | > 100 µM (inactive) | > 100 µM (inactive) | 29.6 µM (inactive) | > 100 µM (inactive) | > 100 µM (inactive) | > 100 µM (inactive) | > 100 µM (inactive) | > 100 µM (inactive) |
| O=c1ncccn1C1C=C(CO)C(O)C1O (stereo not given) | > 50 µM (inactive) | > 50 µM (inactive) | > 50 µM (inactive) | > 50 µM (inactive) | > 50 | > 50 µM (inactive) | > 50 µM (inactive) | > 50 µM (inactive) | > 50 µM (inactive) |  | > 50 µM (inactive) | > 50 µM (inactive) | > 50 µM (inactive) | > 50 µM (inactive) |  | > 50 µM (inactive) |  |  |  |  |
| COC(=O)Cc1ccc2c(cnn2-c2ccccc2)c1OC | > 10 µM (inactive) | > 10 µM (inactive) | > 10 µM (inactive) |  | > 10 | > 10 µM (inactive) | > 10 µM (inactive) | > 10 µM (inactive) | > 10 µM (inactive) | > 10 µM (inactive) | > 10 µM (inactive) | > 10 µM (inactive) | > 10 µM (inactive) | > 10 µM (inactive) | > 10 µM (inactive) | > 10 µM (inactive) | > 10 µM (inactive) | > 10 µM (inactive) | > 10 µM (inactive) | > 10 µM (inactive) |
| COc1ccc(/C=C2\CN(C)CC3C2=NC(=S)NC3c2ccc(OC)cc2)cc1 (stereo not given) | 1.98 µM (inactive) | 3.27 µM (inactive) | 8.13 µM (inactive) |  | 3.46 | 2.8 µM (inactive) | 3.69 µM (inactive) | 5.66 µM (inactive) | 4.82 µM (inactive) | 6.81 µM (inactive) | 4.24 µM (inactive) | 3.67 µM (inactive) | 6.75 µM (inactive) | 6.64 µM (inactive) | 13.3 µM (inactive) | 5.66 µM (inactive) | 7.6 µM (inactive) | 4.68 µM (inactive) | 2.55 µM (inactive) | 0.865 µM (active) |
| COC(=O)[C@]1(NC(=O)c2ccccc2)C[C@H]1C=O | > 100 µM (inactive) | > 71.8 µM (inactive) | 21.6 µM (inactive) |  | > 90.6 | 15 µM (inactive) | > 78.5 µM (inactive) | 93.8 µM (inactive) | > 100 µM (inactive) | > 100 µM (inactive) | > 100 µM (inactive) | > 100 µM (inactive) | 57.7 µM (inactive) | > 100 µM (inactive) | > 100 µM (inactive) | > 100 µM (inactive) | 98.2 µM (inactive) | > 100 µM (inactive) | > 58.6 µM (inactive) | 28.2 µM (inactive) |
| CCOC(=O)C#Cc1ccc([N+](=O)[O-])cc1 | 1.71 µM (inactive) | 17.5 µM (inactive) | 1.1 µM (active) |  | 1.82 | 12.4 µM (inactive) | 12.9 µM (inactive) | 12.7 µM (inactive) | 3.32 µM (inactive) | 1.69 µM (inactive) | 2.67 µM (inactive) | 1.72 µM (inactive) | 14.8 µM (inactive) | 1.87 µM (inactive) | 2.28 µM (inactive) | 13 µM (inactive) | 2.18 µM (inactive) | 1.74 µM (inactive) | 4.18 µM (inactive) | 1.77 µM (inactive) |
| CCOC(=O)/C=C(/C(=O)OCC)n1ccc(=O)n(Cc2cn(COCCOC(C)=O)nn2)c1=O | 17.8 µM (inactive) | 20.5 µM (inactive) | 2.14 µM (inactive) |  | 20.3 | 15.6 µM (inactive) | > 100 µM (inactive) | > 100 µM (inactive) | 19.3 µM (inactive) | 34.8 µM (inactive) | 25.8 µM (inactive) | 4.91 µM (inactive) | 17.8 µM (inactive) | 4.74 µM (inactive) | 28.8 µM (inactive) | 70.5 µM (inactive) | 16.4 µM (inactive) | 40.2 µM (inactive) | 20.3 µM (inactive) | 19.4 µM (inactive) |
| CCOC(=O)CN1CCNCCN(CC(=O)OCC)CCNCC1 | > 100 µM (inactive) | > 100 µM (inactive) | > 100 µM (inactive) |  | > 100 | 90.4 µM (inactive) | > 100 µM (inactive) | > 100 µM (inactive) | > 100 µM (inactive) | > 100 µM (inactive) | > 100 µM (inactive) | > 100 µM (inactive) | > 100 µM (inactive) | > 100 µM (inactive) | > 100 µM (inactive) | > 100 µM (inactive) | > 100 µM (inactive) | > 100 µM (inactive) | > 100 µM (inactive) | 78.7 µM (inactive) |
| Cc1ccc(/C=C/C(=O)c2sc(-c3nc(C)c(C(=O)/C=C/c4ccc(C)cc4)s3)nc2C)cc1 | > 100 µM (inactive) | > 100 µM (inactive) | > 100 µM (inactive) | > 100 µM (inactive) | > 100 | > 100 µM (inactive) | > 100 µM (inactive) | > 100 µM (inactive) | > 100 µM (inactive) | > 100 µM (inactive) | > 100 µM (inactive) | > 100 µM (inactive) | > 100 µM (inactive) | > 100 µM (inactive) |  |  |  |  |  |  |
| O=C1/C(=C/c2ccc(O)cc2)Oc2ccccc21 | > 100 µM (inactive) | > 100 µM (inactive) | 32.2 µM (inactive) |  | > 100 | > 100 µM (inactive) | > 100 µM (inactive) | > 100 µM (inactive) | > 100 µM (inactive) | > 100 µM (inactive) | > 100 µM (inactive) | > 100 µM (inactive) | > 100 µM (inactive) | > 100 µM (inactive) | > 100 µM (inactive) | > 100 µM (inactive) | > 100 µM (inactive) | > 100 µM (inactive) | > 100 µM (inactive) | 47.6 µM (inactive) |
| O=S(O)CCCCCSSCCCCSSCCCCCS(=O)O | > 100 µM (inactive) | > 100 µM (inactive) | 41.2 µM (inactive) | > 100 µM (inactive) | > 100 | > 100 µM (inactive) | > 100 µM (inactive) | > 100 µM (inactive) | > 100 µM (inactive) | > 100 µM (inactive) | > 100 µM (inactive) | > 100 µM (inactive) |  | > 100 µM (inactive) |  | > 100 µM (inactive) |  |  |  |  |
| C=CCSS/C=C/C[S+]([O-])CC=C (stereo not given) [AJOENE] | 37.1 µM (inactive) | > 100 µM (inactive) | 3.44 µM (inactive) |  | 35.5 | 35.8 µM (inactive) | 58.7 µM (inactive) | 64 µM (inactive) | 50.9 µM (inactive) | 26 µM (inactive) | 36.6 µM (inactive) | 24.7 µM (inactive) | 63.1 µM (inactive) | 26.9 µM (inactive) | 25.2 µM (inactive) | > 100 µM (inactive) | 25.6 µM (inactive) | 68.2 µM (inactive) | 26.2 µM (inactive) | 12.4 µM (inactive) |
